Test results taken from publication PMC2149952 (British Journal of Cancer, 1998).
Where two headings read alike, the source gives them in different places.

How the values were obtained:
[1] = in vivo
Procedure: British Joumal of Cancer (1998) 77(5), 808-81 1 ? […] Penclomedine administration by 1-h intravenous infusion on 5 consecutive days was repeated 3 weekly in the absence of dose-limiting toxicity (DLT) or disease progression. Five dose levels were investigated (22.5-340 mg m-2 day-'). Eight men and eight women were entered, median age 59 years (range 39-73 years), with good performance status (ECOG 0/1) in 11 patients. A total of 13 out of 16 patients had received previous chemotherapy. […] Neurotoxicity developed during the 1-h infusion and persisted for a variable period (maximum 5 h) after infusion. […] Penclomedine pharmacokinetic studies confirmed preclinical evidence of extensive apparent distribution (931 m-2) and rapid clearance (41 1 h-1m-2). […] Therefore, an experimental formulation of penclomedine as a 10% oil in water emulsion was developed for intravenous (i.v.) administration. […] Single treatments were effective when administered intra- venously, but the dose used in a rapid bolus push was limited by acute lethality. […] Penclomedine has also been tested in drug-resistant cell lines (doxorubicin, vincristine, cisplatinum, methotrexate, Ara-C and 5-FU) including the multidrug-resistant (MDR) phenotype. […] Preclinical toxicology studies were performed in mice, rats, and dogs. In mice, the maximum tolerated dose (MTD) was 150 mg kg-' (450 mg m-2) as a single i.v. dose and 80 mg kg-' day-' (240 mg m-2 day-'; total dose 1200 mg m-2) on a daily x 5 schedule. […] 808 Phase I trial of penclomedine 809 The aims of this phase I study were: (a) to determine the MTD of penclomedine when administered i.v. once daily for 5 days every 21 days; (b) to identify the toxicity profile of penclomedine and to determine whether this is predictable, tolerable and reversible, and to define dose-limiting toxicities in patients; (c) to determine the pharmacokinetics of penclomedine at different dose levels; (d) to define a safe dose for subsequent phase II studies of anti-tumour activity; and (e) to observe and record any possible therapeutic effectiveness of penclomedine. MATERIALS AND METHODS This was an open non-randomized study with dose escalation that continued until the dose-limiting toxicity was defined. A minimum of three patients were treated at each dose level. […] All patients were required to give written informed consent. Before commencing the study ethical approval was obtained from the Medicine and Clinical Oncology Research Ethics Sub-Committee of Lothian Health Board (ref. MCO/ 105/92) and the study was conducted according to the Helsinki Declaration. This trial was conducted under the auspices of the Cancer Research Campaign Phase I/II Clinical Trials Committee. […]

malignancy = assay: Phase I study: tumour response (UICC criteria); assay type: in vivo; conditions: 16 patients, all dose levels
Procedure: British Joumal of Cancer (1998) 77(5), 808-81 1 ? […] Penclomedine administration by 1-h intravenous infusion on 5 consecutive days was repeated 3 weekly in the absence of dose-limiting toxicity (DLT) or disease progression. Five dose levels were investigated (22.5-340 mg m-2 day-'). Eight men and eight women were entered, median age 59 years (range 39-73 years), with good performance status (ECOG 0/1) in 11 patients. A total of 13 out of 16 patients had received previous chemotherapy. […] Neurotoxicity developed during the 1-h infusion and persisted for a variable period (maximum 5 h) after infusion. […] Penclomedine pharmacokinetic studies confirmed preclinical evidence of extensive apparent distribution (931 m-2) and rapid clearance (41 1 h-1m-2). […] Therefore, an experimental formulation of penclomedine as a 10% oil in water emulsion was developed for intravenous (i.v.) administration. […] Single treatments were effective when administered intra- venously, but the dose used in a rapid bolus push was limited by acute lethality. […] Penclomedine has also been tested in drug-resistant cell lines (doxorubicin, vincristine, cisplatinum, methotrexate, Ara-C and 5-FU) including the multidrug-resistant (MDR) phenotype. […] Preclinical toxicology studies were performed in mice, rats, and dogs. […]

[2] = Plasma pharmacokinetics in phase I patients (HPLC, two-compartment model); assay type: in vivo
Procedure: British Joumal of Cancer (1998) 77(5), 808-81 1 ? […] Penclomedine administration by 1-h intravenous infusion on 5 consecutive days was repeated 3 weekly in the absence of dose-limiting toxicity (DLT) or disease progression. Five dose levels were investigated (22.5-340 mg m-2 day-'). Eight men and eight women were entered, median age 59 years (range 39-73 years), with good performance status (ECOG 0/1) in 11 patients. A total of 13 out of 16 patients had received previous chemotherapy. […] Neurotoxicity developed during the 1-h infusion and persisted for a variable period (maximum 5 h) after infusion. […] Penclomedine pharmacokinetic studies confirmed preclinical evidence of extensive apparent distribution (931 m-2) and rapid clearance (41 1 h-1m-2). […] Therefore, an experimental formulation of penclomedine as a 10% oil in water emulsion was developed for intravenous (i.v.) administration. […] Single treatments were effective when administered intra- venously, but the dose used in a rapid bolus push was limited by acute lethality. […] Penclomedine has also been tested in drug-resistant cell lines (doxorubicin, vincristine, cisplatinum, methotrexate, Ara-C and 5-FU) including the multidrug-resistant (MDR) phenotype. […] Preclinical toxicology studies were performed in mice, rats, and dogs. In mice, the maximum tolerated dose (MTD) was 150 mg kg-' (450 mg m-2) as a single i.v. dose and 80 mg kg-' day-' (240 mg m-2 day-'; total dose 1200 mg m-2) on a daily x 5 schedule. […] 808 Phase I trial of penclomedine 809 The aims of this phase I study were: (a) to determine the MTD of penclomedine when administered i.v. once daily for 5 days every 21 days; (b) to identify the toxicity profile of penclomedine and to determine whether this is predictable, tolerable and reversible, and to define dose-limiting toxicities in patients; (c) to determine the pharmacokinetics of penclomedine at different dose levels; (d) to define a safe dose for subsequent phase II studies of anti-tumour activity; and (e) to observe and record any possible therapeutic effectiveness of penclomedine. MATERIALS AND METHODS This was an open non-randomized study with dose escalation that continued until the dose-limiting toxicity was defined. A minimum of three patients were treated at each dose level. […] All patients were required to give written informed consent. Before commencing the study ethical approval was obtained from the Medicine and Clinical Oncology Research Ethics Sub-Committee of Lothian Health Board (ref. MCO/ 105/92) and the study was conducted according to the Helsinki Declaration. This trial was conducted under the auspices of the Cancer Research Campaign Phase I/II Clinical Trials Committee. […] Adequate bone marrow, hepatic and renal function was required (WBC > 3 x 109 1-1, platelet count > 100 x 109 1-1, serum creatinine < 120 gmmol 1-l, bilirubin < 30 gmol 1-1, and other liver function tests within twice the upper limit of normal (unless known to be related to liver metastases)). Patients were deemed ineligible in the event of pregnancy or lactation, previous chemotherapy or radiotherapy within the last 4 weeks (6 weeks for nitrosoureas or mitomycin C), the presence of another non-malignant disease that in the opinion of the investi- gator was incompatible with this protocol, concurrent administra- tion of another investigational drug, or cytotoxic, hormonal or biological therapy. Patients with brain metastases or primary brain tumours were excluded and also patients with epilepsy or chronic neurological disorders that might interfere with the assessment of neurological toxicity. Penclomedine was formulated as a de novo emulsion (in 100 ml: soybean oil, […]; lecithin, 30 mg; glycerin 20 mg and water for injection) and stored as intact vials under refrigeration (2-8?C). Penclomedine emulsions were diluted up to 1:10 using 5% dextrose solution. […] Penclomedine was supplied by the NCI DCT under the special foreign exemption mechanism established with the FDA. […]

[3] = set-up: method as in Reid et al, 1992; conditions: ref Reid et al, 1992, cited from earlier work
[4] = set-up: method as in Reid et al, 1992; conditions: ref Reid et al, 1992; cited from earlier work
[5] = set-up: method as in personal communication, AC Smith, NCI; conditions: mice, ref personal communication, AC Smith, NCI, cited from earlier work
cerebellum = test system: cerebellum; set-up: method as in O'Reilly et al, 1996a; conditions: ref O'Reilly et al, 1996a, cited from earlier work
[6] = test system: human MX-1 mammary tumour xenograft; conditions: cited from earlier work
[7] = test system: subrenal capsule xenograft of the human MX-1 mammary carcinoma; set-up: method as in Harrison 1991; conditions: oral 300 mg kg-1 day-1 on days 13, 17 and 21; for 40 days after the last treatment; ref Harrison 1991; cited from earlier work
[8] = test system: human H82 small cell lung carcinoma xenografts; set-up: method as in Harrison 1991; conditions: oral 445 mg kg-1 day-1; ref Harrison 1991; cited from earlier work
[9] = test system: drug-resistant cell lines; set-up: method as in Harrison et al, 1991; conditions: ref Harrison et al, 1991, cited from earlier work
[10] = test system: mouse CD8F, mammary carcinoma; set-up: method as in Plowman et al, 1989; conditions: ref Plowman et al, 1989; cited from earlier work
[11] = set-up: method as in Prankerd et al, 1989; conditions: ref Prankerd et al, 1989; cited from earlier work
[12] = set-up: method as in O'Reilly et al, 1996b; conditions: ref O'Reilly et al, 1996b; cited from earlier work
[13] = cited from earlier work
[14] = mean of 10 patients, 150-340 mg m-2 day-1, initial 24 h

## COc1nc(C(Cl)(Cl)Cl)c(Cl)c(OC)c1Cl [penclomedine, 3,5-Dichloro-2,4-dimethoxy-6-(trichloromethyl)pyridine]
[1]; both, human
  persistence of neurotoxicity after infusion (maximum): ≤ 5 h
[1]; both, human, iv, 5 days
  dose at which dose-limiting toxicity occurred: 340 mg m-2 day-1
[1]
  antiproliferative toxicities (myelosuppression, mucositis): No antiproliferative toxicities were noted
[1]; iv
  dose-limiting toxicity (DLT): Neurotoxicity (cerebellar ataxia and dizziness)
malignancy
  anti-tumour responses: no anti-tumour responses were documented
[2]; 150-340 mg m-2 day-1
  dose dependence of total body clearance: did not vary with dose
[2]; human, in vivo
  metabolites in plasma of patients: not detected
[2]; human, in vivo, iv
  apparent distribution volume (mean Vc + Vp): 93 l m-2
[2]; human, in vivo, patients, read-out: apparent elimination phase half-life (t1/2 beta) (converted)
  half-life: 2.4 h
[2]; human, in vivo, patients, read-out: initial distribution phase half-life (t1/2 alpha)
  half-life: 0.2 h
[2]; [14]
  Cld (distributional clearance), mean: 43 l h-1 m-2
  Clt (total body clearance), mean: 41 l h-1 m-2
[2]; patients, i.v. infusion, abstract
  clearance: 41 l h-1 m-2
[3]; after both i.v. and oral administration
  metabolism of radiolabelled penclomedine: extensive
[3]; mice, parent drug
  clearance: 114 ml min-m m-2
  half-life: 1.15 h
  volume of distribution: 4.8 l m-2
[3]; mice
  oral bioavailability of the parent compound: 2%
[4]
  in vitro metabolism: subject to metabolism under both oxidative and reductive conditions
[5]; daily x 5 schedule
  dose-limiting toxicity: bone marrow suppression
  maximum tolerated dose (MTD), total dose: 1200 mg m-2
[5]; single dose schedule
  dose-limiting toxicity: neurological
cerebellum; after intraperitoneal administration
  cerebellar finding in preclinical models: Purkinje cell loss
cerebellum; rats, intraperitoneal injection, may be irreversible
  single dose producing visible pathological changes in the cerebellum: ≥ 150 mg kg-1
[6]; advanced stage MX-1 mammary carcinoma, oral 135 mg kg-1 day-1 for 5 days, oil in water emulsion, ref Harrison et al, 1991
  tumour-free survivors: ten out of ten
[6]; human MX-1 mammary tumour xenograft, ref Plowman et al, 1989
  anti-tumour activity: good activity
[7]
  tumour regression: complete regression of all tumours
[8]
  complete regressions: six out of ten
  partial regressions: four out of ten
[9]; lines resistant to doxorubicin, vincristine, cisplatinum, methotrexate, Ara-C and 5-FU, including MDR phenotype
  activity in resistant versus wild-type cell lines: equivalent activity
[9]
  sensitivity of AMSA-resistant line: collaterally sensitive
  sensitivity of L-PAM-resistant line: resistant
[10]
  anti-tumour activity: good activity
[11]
  solubility in non-polar solvents and lipids: soluble
  solubility in water: poorly soluble
[12]
  chemical species found in rat brain: predominant chemical species
[13]; beagle dogs, 90 mg kg-1, ref Dixit et al, 1992
  toxicity at the MTD: reversible myelosuppression
[13]; beagle dogs, 90 mg kg-1 dose level, not associated with neurotoxicity, ref Dixit et al, 1992
  plasma penclomedine concentrations: 6 to 9 µg/mL
[13]; beagle dogs, single 5-h infusion, ref Dixit et al, 1992
  maximum tolerated dose (MTD): 90 mg/kg
[13]; dog, in vivo
  toxicity at higher dosages: dose-limiting neurotoxicity
